We go through 7 compounds from patent US20160022681A1, “METHODS OF INCREASING LYMPHATIC TRANSPORT” (UNIVERSITY OF ROCHESTER, priority 2012, published 2016).

Experiment [1] concerns lymphatic vessels. The settings on record: ex vivo studies; cited from earlier work.
For experiment [2], the system named is lymphatic vessels. Briefly: near-infrared (NIR) imaging of indocyanine green (ICG) transport after footpad injection. The settings on record: mouse, sildenafil 12 mg/kg intraperitoneally, images taken 20 minutes after treatment, versus saline control. Type of experiment: in vivo. The method, then: To determine if phosphodiesterase (PDE) inhibitors were capable of increasing lymphatic transport, near-infrared (NIR) imaging of indocyanine green ICG) transport was used. ICG (20 μl of 0.1 mg ICG/ml water) was injected into the footpad Of the animal Where it is taken up by the lymphatic system. The extremity was illuminated with near infrared light (generated with a tungsten halogen source) resulting in near infrared fluorescence at a longer wavelength that was recorded with a near-infrared sensitive camera (Prosilica GC1380; Allied Vision Technologies; Stadtroda, Germany). Excitation and emission wavelengths were separated using Semrock filters (IDEX; Lake Forest, Ill.) from the ICG-A filter set. To determine if PDE inhibitors Were capable of increasing lymphatic transport, sildenafil (12 mg/kg), a PDE5 antagonist, was injected intraperitoneally with ICG into the footpad of a mouse. Saline was used a control.

Entries after “also recorded” stand apart in the source; their conditions may differ. Bridge positions count the residues as written; N and C are the ends. Ends that are not written are not given here.

Take `CCCCC[C@H](O)/C=C/[C@@H]1[C@@H](C/C=C\CCCC(=O)O)[C@H]2CO[C@@H]1C2` [U46619]: the “lymphatic pulsing and/or flow” value with lymphatic vessels [1] is reported as “increase lymphatic pulsing and/or flow”. Turning to `O=S(=O)(O)c1cc(O)ccc1O` [doxium], the “lymphatic pulsing and/or flow” value with lymphatic vessels [1] is “increase lymphatic pulsing and/or flow”. Regarding `NC[C@H](O)c1ccc(O)c(O)c1` [norepinephrine], in the experiment with lymphatic vessels [1], the “lymphatic pulsing and/or flow” value is “increase lymphatic pulsing and/or flow”. Regarding `CCCc1nn(C)c2c(=O)[nH]c(-c3cc(S(=O)(=O)N4CCN(C)CC4)ccc3OCC)nc12` [sildenafil], the “ICG uptake into lymphatic vessels / lymphatic system” value in the experiment on lymphatic vessels [2] is given as “increases indocyanine green (ICG) uptake into lymphatic vessels; also recorded: increased ICG uptake into the lymphatic system”.

In the case of “endothelin-1 (CSCSSLMDKECVYFCHLDIIW; disulfide 1-15, 3-11; ends not checked; UniProt P05305 53-73, looked up)”, the “lymphatic pulsing and/or flow” value in the experiment on lymphatic vessels [1] is reported as “increase lymphatic pulsing and/or flow”.

As for hyaluronidase, the “lymphatic pulsing and/or flow” value in the experiment on lymphatic vessels [1] is “increase lymphatic pulsing and/or flow”.

Consider “substance P (RPKPQQFFGLM-NH2; ends and bridges not checked; UniProt P20366 58-68, looked up)”, for which the “lymphatic pulsing and/or flow” value with lymphatic vessels [1] is “increase lymphatic pulsing and/or flow”.
